# From ChEMBL document CHEMBL5678818, “Discovery of potent SOS1 inhibitors that block RAS activation via disruption of the RAS-SOS1 interaction” (Proc Natl Acad Sci U S A, 2019)
# Columns and labels:
# [1] = molecular target: T1, Son of sevenless homolog 1 (Homo sapiens) (UniProt Q07889); assay: Inhibition of N-terminal His10-tagged wild-type recombinant human SOS1 catalytic domain (564 to 1049 residues) expressed in Escherichia coli assessed as reduction in KRAS G12C mutant activation at 10 uM by HTRF analysis relative to control
# T1 sequence (whole entry): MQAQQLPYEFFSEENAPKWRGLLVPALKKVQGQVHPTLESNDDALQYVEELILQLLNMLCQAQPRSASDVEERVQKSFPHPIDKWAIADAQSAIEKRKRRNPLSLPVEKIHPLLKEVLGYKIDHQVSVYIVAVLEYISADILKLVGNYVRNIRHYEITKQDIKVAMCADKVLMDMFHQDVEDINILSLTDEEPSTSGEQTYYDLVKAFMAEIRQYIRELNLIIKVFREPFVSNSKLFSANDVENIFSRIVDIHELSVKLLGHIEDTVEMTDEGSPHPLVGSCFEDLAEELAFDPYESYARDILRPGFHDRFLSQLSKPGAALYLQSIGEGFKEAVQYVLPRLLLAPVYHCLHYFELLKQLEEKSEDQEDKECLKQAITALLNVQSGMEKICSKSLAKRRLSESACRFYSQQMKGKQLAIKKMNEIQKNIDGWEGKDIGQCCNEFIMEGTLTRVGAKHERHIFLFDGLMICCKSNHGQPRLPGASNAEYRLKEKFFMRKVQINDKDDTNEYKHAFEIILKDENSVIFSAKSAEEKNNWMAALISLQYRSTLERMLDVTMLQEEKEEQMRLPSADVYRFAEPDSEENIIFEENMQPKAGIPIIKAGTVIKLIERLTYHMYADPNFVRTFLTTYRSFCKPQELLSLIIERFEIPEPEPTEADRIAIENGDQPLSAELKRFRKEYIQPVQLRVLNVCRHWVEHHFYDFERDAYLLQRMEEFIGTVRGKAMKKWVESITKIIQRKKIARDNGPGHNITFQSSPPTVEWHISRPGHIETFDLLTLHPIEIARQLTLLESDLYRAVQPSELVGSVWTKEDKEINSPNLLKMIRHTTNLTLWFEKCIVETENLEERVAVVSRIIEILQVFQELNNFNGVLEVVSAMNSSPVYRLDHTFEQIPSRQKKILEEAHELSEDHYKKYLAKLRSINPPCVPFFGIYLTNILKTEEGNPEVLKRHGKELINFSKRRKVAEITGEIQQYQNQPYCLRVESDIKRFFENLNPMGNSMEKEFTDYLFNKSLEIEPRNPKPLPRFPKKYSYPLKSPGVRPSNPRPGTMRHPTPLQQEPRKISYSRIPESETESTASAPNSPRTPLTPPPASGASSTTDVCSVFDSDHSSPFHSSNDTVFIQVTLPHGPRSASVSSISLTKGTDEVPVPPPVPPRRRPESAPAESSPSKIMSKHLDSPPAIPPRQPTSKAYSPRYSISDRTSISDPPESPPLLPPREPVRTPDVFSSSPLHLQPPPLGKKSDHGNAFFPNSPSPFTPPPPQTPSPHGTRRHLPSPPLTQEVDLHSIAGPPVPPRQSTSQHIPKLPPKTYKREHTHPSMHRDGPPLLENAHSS
# [2] = molecular target: T2, cGMP-dependent protein kinase 1 (Homo sapiens) (UniProt Q13976); assay: Inhibition of PRKG1 (unknown origin) assessed as residual activity at 100 nM by KINOMEscan analysis relative to control
# T2 sequence (whole entry): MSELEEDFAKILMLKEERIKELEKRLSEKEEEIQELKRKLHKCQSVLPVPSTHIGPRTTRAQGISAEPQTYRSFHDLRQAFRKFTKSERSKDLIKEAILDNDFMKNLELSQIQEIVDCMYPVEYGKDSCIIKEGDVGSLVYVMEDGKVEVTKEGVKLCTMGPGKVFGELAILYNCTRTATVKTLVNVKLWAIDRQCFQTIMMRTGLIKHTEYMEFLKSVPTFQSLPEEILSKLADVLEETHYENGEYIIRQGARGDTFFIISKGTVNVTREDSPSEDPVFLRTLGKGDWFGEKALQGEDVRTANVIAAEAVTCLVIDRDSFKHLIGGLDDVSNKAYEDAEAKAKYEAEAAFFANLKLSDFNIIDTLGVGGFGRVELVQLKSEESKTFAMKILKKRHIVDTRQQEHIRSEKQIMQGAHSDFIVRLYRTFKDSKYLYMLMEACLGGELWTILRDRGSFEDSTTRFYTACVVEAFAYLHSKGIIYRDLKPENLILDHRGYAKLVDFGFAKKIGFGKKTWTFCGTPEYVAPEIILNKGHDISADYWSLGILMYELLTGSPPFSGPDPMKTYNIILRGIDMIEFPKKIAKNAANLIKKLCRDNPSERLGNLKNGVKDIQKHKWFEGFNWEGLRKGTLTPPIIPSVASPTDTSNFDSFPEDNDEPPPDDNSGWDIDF
# [3] = molecular target: T3, Tyrosine-protein kinase TXK (Homo sapiens) (UniProt P42681); assay: Inhibition of TXK (unknown origin) assessed as residual activity at 100 nM by KINOMEscan analysis relative to control
# T3 sequence (whole entry): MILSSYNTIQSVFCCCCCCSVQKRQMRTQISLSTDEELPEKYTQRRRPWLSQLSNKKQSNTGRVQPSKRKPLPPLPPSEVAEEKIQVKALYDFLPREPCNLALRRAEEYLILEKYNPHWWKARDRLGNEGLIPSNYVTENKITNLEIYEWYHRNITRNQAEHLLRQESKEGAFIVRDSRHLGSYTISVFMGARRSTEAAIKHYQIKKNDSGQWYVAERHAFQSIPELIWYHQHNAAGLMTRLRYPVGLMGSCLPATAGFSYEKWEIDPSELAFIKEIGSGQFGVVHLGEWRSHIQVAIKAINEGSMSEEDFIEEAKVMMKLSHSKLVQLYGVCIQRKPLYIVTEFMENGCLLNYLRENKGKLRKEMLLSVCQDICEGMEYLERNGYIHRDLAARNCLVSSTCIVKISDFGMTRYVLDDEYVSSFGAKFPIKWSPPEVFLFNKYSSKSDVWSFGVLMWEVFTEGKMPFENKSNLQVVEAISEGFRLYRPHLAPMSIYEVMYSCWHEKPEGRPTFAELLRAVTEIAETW
compound,measurement,setting,value
COc1cc2ncnc(N[C@H](C)c3cccc4ccccc34)c2cc1OC,inhibition,[1],95%
same,Activity,[2],96%
same,Activity,[3],67%
